In this test the test system is L6. The test is described as follows: Antidiabetic activity in rat L6 cells assessed as stimulation of glucose uptake at 10 uM. The class given is functional.

As for `C=C1CC[C@@H]2[C@](C)(CCC[C@]2(C)C(=O)N2CCN(c3ccc(F)cc3)CC2)[C@H]1CC[C@H](C)CCOC(C)=O`, the Activity came out at 22.45%.

With `C=C1CC[C@@H]2[C@](C)(CCC[C@]2(C)C(=O)N2CCN(c3cccc(OC)c3)CC2)[C@H]1CC[C@H](C)CCOC(C)=O`, the Activity came out at 54.73%.

`C=C1CC[C@@H]2[C@](C)(CCC[C@]2(C)C(=O)N2CCN(C/C=C/c3ccccc3)CC2)[C@H]1CC[C@H](C)CCOC(C)=O`: the Activity was 16.3%.

As for `C=C1CC[C@@H]2[C@](C)(CCC[C@]2(C)C(=O)N2CCN(c3ccc(C)cc3)CC2)[C@H]1CC[C@H](C)CCOC(C)=O`, the Activity was determined as 2.21%.

For `C=C1CC[C@@H]2[C@](C)(CCC[C@]2(C)C(=O)N2CCN(c3ccc(Cl)cc3)CC2)[C@H]1CC[C@H](C)CCOC(C)=O`, the Activity is reported as 40.79%.

In the case of `C=C1CC[C@@H]2[C@](C)(CCC[C@]2(C)C(=O)N2CCN(c3ccccc3)CC2)[C@H]1CC[C@H](C)CCOC(C)=O`, the Activity was 24.14%.

As for `C=C1CC[C@@H]2[C@](C)(CCC[C@]2(C)C(=O)N2CCN(C)CC2)[C@H]1CC[C@H](C)CCOC(C)=O`, the Activity is recorded as -10.16%.

On to `C=C1CC[C@@H]2[C@](C)(CCC[C@]2(C)C(=O)N2CCN(C(C)=O)CC2)[C@H]1CC[C@H](C)CCOC(C)=O`, for which the Activity is listed as -1.96%.

Take `C=C1CC[C@@H]2[C@](C)(CCC[C@]2(C)C(=O)OC)[C@H]1CC[C@H](C)CCOC(=O)CN1CCN(c2ccc(F)cc2)CC1`: the Activity turned out to be 28.86%.

On to `C=C1CC[C@@H]2[C@](C)(CCC[C@]2(C)C(=O)OC)[C@H]1CC[C@H](C)CCOC(=O)CN1CCN(c2cccc(OC)c2)CC1`, for which the Activity stood at 40.9%.

In the case of `C=C1CC[C@@H]2[C@](C)(CCC[C@]2(C)C(=O)OC)[C@H]1CC[C@H](C)CCOC(=O)CN1CCN(C/C=C/c2ccccc2)CC1`, the Activity came out at 18.58%.

In the case of `C=C1CC[C@@H]2[C@](C)(CCC[C@]2(C)C(=O)OC)[C@H]1CC[C@H](C)CCOC(=O)CN1CCN(c2ccc(C)cc2)CC1`, the Activity was 15.27%.

Consider `C=C1CC[C@@H]2[C@](C)(CCC[C@]2(C)C(=O)OC)[C@H]1CC[C@H](C)CCOC(=O)CN1CCN(c2ccc(Cl)cc2)CC1`, for which the Activity amounted to 39.55%.

Regarding `C=C1CC[C@@H]2[C@](C)(CCC[C@]2(C)C(=O)OC)[C@H]1CC[C@H](C)CCOC(=O)CN1CCN(c2ccccc2)CC1`, the Activity worked out at 29.51%.

In the case of `C=C1CC[C@@H]2[C@](C)(CCC[C@]2(C)C(=O)OC)[C@H]1CC[C@H](C)CCOC(=O)CN1CCN(C)CC1`, the Activity was -3.75%.

In the case of `C=C1CC[C@@H]2[C@](C)(CCC[C@]2(C)C(=O)OC)[C@H]1CC[C@H](C)CCOC(=O)CN1CCN(C(C)=O)CC1`, the Activity was -5.9%.

As for `C=C1CC[C@@H]2[C@](C)(CCC[C@]2(C)C(=O)O)[C@H]1CC[C@H](C)CCO` [IMBRICATOLIC ACID], the Activity worked out at 34.41%.

In the case of `CN(CCOc1ccc(CC2SC(=O)NC2=O)cc1)c1ccccn1` (stereo not drawn) [ROSIGLITAZONE], the Activity was 54.5%.

The values are drawn from ChEMBL document CHEMBL2046285, “Synthesis of novel imbricatolic acid analogues via insertion of N-substituted piperazine at C-15/C-19 positions, displaying glucose uptake stimulation in L6 skeletal muscle cells” (2012).
